{
  "source": "paper PMC8586358",
  "about": "(Nature Communications, 2021)",
  "key": {"[1]": {"target": "T1, CB1R (Homo sapiens, UniProt P21554)", "T1 sequence (P21554 whole entry)": "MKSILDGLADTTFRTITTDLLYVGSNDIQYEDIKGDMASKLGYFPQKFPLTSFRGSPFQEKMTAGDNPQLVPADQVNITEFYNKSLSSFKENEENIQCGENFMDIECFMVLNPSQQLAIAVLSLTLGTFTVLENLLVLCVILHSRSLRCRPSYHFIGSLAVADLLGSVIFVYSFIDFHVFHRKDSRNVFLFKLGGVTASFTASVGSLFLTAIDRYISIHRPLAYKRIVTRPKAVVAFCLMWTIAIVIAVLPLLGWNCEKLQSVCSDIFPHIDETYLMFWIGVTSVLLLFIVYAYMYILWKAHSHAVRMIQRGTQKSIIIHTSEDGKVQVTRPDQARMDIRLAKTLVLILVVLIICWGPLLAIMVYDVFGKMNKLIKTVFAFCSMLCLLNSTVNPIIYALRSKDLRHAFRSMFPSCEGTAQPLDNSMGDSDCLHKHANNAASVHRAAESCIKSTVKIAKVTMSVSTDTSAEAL", "assay_type": "cell-based", "set-up": "expressed in transfected cells; host or cells: HEK 293T", "settings": "for cAMP reduction (%): single experiments"}, "[2]": {"target": "T1, CB1R", "test": "Ligand-binding assay, affinity of fluo-cannabinoid for CB1R (Supplementary Table S1)"}, "[3]": {"target": "T2, D3R in the Islands of Calleja (Mus musculus, UniProt P30728)", "T2 construct": "from tissue; host or cells: mouse brain (Islands of Calleja, ventral and dorsal striatum); acute slices or fresh-frozen cryosections", "T2 sequence (P30728 whole entry)": "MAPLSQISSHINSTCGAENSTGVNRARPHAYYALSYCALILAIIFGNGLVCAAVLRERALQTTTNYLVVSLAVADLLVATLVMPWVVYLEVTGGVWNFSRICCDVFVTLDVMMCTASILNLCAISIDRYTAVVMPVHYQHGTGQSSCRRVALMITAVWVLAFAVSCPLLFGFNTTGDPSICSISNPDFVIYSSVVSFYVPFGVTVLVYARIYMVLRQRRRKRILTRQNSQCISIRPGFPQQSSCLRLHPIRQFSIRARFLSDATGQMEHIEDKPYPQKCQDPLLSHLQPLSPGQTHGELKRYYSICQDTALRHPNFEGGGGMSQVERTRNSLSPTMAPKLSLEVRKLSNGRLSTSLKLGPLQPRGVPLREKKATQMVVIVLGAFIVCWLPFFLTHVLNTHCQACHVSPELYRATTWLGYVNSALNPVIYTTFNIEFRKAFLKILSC", "test": "In vivo competitive drug-binding measurement (cariprazine i.p., then Fluo-CAR labeling of acute slices)", "settings": "cariprazine 1 mg/kg i.p., 2 h", "protocol": "Male 26–33-days-old C57BL/6 mice were intraperitoneally injected with 1 mg/kg cariprazine or an equal volume of vehicle (0.9% saline + 1% Tween80). After injection (2 h), pharmacological tissue labeling was carried out similarly to the previous experiments. […] Slices were rinsed three times with ACSF and fixed overnight with 4% PFA. Slices were either processed for correlated confocal and STORM imaging or for conventional confocal imaging."}, "[4]": {"target": "T3, D2R (Homo sapiens, UniProt P14416)", "T3 construct": "expressed in transfected cells; host or cells: HEK 293", "T3 sequence (P14416 whole entry)": "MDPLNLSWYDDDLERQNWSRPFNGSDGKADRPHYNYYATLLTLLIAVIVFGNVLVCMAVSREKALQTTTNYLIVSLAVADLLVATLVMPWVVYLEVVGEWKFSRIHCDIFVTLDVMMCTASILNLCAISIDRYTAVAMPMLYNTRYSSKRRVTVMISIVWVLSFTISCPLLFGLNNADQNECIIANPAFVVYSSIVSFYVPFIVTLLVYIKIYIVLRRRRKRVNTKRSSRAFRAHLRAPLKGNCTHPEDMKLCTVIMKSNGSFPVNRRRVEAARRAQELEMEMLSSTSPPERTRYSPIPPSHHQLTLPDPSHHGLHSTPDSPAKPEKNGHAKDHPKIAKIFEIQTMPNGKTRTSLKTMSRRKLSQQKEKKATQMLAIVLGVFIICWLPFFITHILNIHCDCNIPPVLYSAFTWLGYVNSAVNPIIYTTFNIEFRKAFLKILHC", "test": "Fluo-cariprazine PharmacoSTORM signal in D2R-expressing cells (Supplementary Fig. S6d)", "assay_type": "binding", "description": "Generation of N-terminally EGFP-tagged mouse CB1R was previously described[8]. The coding sequence of monoacylglycerol lipase (MAGL) was amplified with mMGL_fw and mMGL_rev primers using a mouse brain cDNA library as a template. The PCR product was digested with HindIII and BamHI enzymes and cloned into pcDNA3.1 backbone. GFP-MGL was constructed by subcloning the open reading frame of MAGL into pAcGFP1-C1 vector following HindIII/BamHI digestion. […] The amplified DNA was inserted into pcDNA3.1 vector between the BamHI and XhoI restriction sites. TMEM35 in pCMV6 vector was from Origene (RC209790). The pGloSensor™-22F cAMP plasmid was from Promega. The plasmid encoding CB1R was generated by inserting the coding sequence of human CB1R into pCAGIG vector. The plasmids encoding Gi1 subunits (αi1, β1, and γ2) were from the cDNA Resource Center. We created Gαi1–Rluc8 using overlap exchange PCR, Rluc8 was inserted into Gαi1 between residue 91 and 92 with SGGGGS linkers similar to a previous design[77]. Venus–β1 was created by replacing YFP with Venus in YFP–β1 using restriction digestion, YFP–β1 plasmid construct was described previously[78].\nFor microscopic experiments, cells were seeded one day before transfection on poly-D-lysine-coated coverslips in 24-well culture plates. Coverslips were cleaned with extensive 2 M NaOH and 70% ethanol washing steps prior to use. Transient transfection was done with Lipofectamine 2000 (Thermo Fischer) according to the manufacturer’s protocol. After transfection (20–28 h), pharmacological treatment was applied and then combined with immunolabeling. The full procedure was optimized for each investigated protein. In the case of D3R-, CB1R-, and α7-nAchR-expressing cells, all labeling and washing steps were executed in Hanks’ balanced salt solution (Sigma-Aldrich H6648) on live cells, and in Dulbecco’s Phosphate Buffered Saline (Corning, 21-031-CV) on fixed cells. The labeling steps with antibodies, ligands, or fixatives were followed by three washing steps. […] Unless otherwise stated, we used CF568-labeled secondary antibodies.\nThe HA-D3R-expressing cells were live-stained with anti-HA primary and secondary antibodies for 10 min at room temperature. […] Cells were fixed in 4% PFA for 10 min before imaging. For Supplementary Fig. S5g, Cy5-labeled secondary antibody was applied, without fluorescent ligand treatment. For fluo-cannabinoid binding experiments, all steps were executed at room temperature. […] MAGL pharmacological labeling was performed in culture medium in a 5% CO2 atmosphere at 37 °C. […] Before immunolabeling, cells were washed with 100% methanol three times for 10 min and were blocked with 5% normal donkey serum (NDS) in 0.1 M phosphate buffer (PB; pH 7.4), for 30 min. Anti-GFP immunolabeling was done in 0.1 M PB and immunostained cells were postfixed with 4% PFA before imaging. In the case of α7-nAChR experiments, its chaperon protein, NACHO (TMEM35) was co-transfected in a 10 to 1 receptor:chaperon ratio in order to enhance cell-surface expression of the ion channel[79]. MLA pretreatment and Alexa647-bungarotoxin labeling were done at 4 °C for 20 min. After pharmacological labeling, the cells were fixed with 4% PFA, and subsequent anti-HA-immunolabeling was done at room temperature. Immunolabeling was followed by post-fixation.\nTo analyze the number of localization points (LPs) in membranes of cultured cells, we merged the dSTORM images obtained from pharmacolabeling (PharmacoSTORM) and immunolabeling (ImmunoSTORM). […]"}, "[5]": {"target": "T4, D3R (Homo sapiens, UniProt P35462)", "T4 construct": "expressed in transfected cells; host or cells: HEK 293 (microscopy), HEK 293T (BRET)", "T4 sequence (P35462 whole entry)": "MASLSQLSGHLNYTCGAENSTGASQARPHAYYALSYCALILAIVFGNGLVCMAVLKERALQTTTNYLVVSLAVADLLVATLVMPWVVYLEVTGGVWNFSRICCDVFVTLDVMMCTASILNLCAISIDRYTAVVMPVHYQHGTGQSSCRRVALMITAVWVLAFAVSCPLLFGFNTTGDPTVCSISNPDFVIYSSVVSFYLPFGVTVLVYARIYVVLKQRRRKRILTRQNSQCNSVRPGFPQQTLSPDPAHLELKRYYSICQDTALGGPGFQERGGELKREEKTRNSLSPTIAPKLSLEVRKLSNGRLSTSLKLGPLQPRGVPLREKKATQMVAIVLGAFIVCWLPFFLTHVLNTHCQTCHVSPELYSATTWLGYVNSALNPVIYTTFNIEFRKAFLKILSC", "test": "BRET-based Gi1-activation assay in HEK 293T cells", "assay_type": "cell-based", "from_the_text": "The next day we replaced the medium with modified Kreb’s Ringer medium and performed BRET experiments using a Thermo Scientific Varioskan Flash multimode plate reader similarly as previously described. […] To calculate the BRET response, we first subtracted the BRET ratio of cells coexpressing the untagged β1 subunit from the BRET ratio of cells coexpressing Venus-β1. Then we corrected the baseline BRET ratio and subtracted the BRET ratio of vehicle-treated cells from the average BRET ratio of stimulus-treated cells. All BRET measurements were performed in triplicates."}, "[6]": {"target": "α7-nAchR-HA (Homo sapiens, UniProt P36544)", "sequence (P36544 23-502)": "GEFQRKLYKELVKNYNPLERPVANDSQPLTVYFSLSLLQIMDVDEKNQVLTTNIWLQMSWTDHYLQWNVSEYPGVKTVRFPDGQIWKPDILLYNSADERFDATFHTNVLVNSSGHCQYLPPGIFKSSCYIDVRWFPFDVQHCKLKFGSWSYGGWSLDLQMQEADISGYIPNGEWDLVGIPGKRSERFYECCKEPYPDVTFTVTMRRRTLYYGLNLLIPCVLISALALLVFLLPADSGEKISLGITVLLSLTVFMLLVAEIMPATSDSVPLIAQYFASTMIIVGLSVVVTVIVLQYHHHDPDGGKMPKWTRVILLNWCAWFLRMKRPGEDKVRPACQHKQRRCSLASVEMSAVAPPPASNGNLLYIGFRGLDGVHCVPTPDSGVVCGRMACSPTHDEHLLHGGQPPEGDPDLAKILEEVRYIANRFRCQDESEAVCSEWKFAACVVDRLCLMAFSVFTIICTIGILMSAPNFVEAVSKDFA"}, "[7]": {"target": "T5, MAGL (Homo sapiens, UniProt Q99685)", "T5 sequence (Q99685 1-303)": "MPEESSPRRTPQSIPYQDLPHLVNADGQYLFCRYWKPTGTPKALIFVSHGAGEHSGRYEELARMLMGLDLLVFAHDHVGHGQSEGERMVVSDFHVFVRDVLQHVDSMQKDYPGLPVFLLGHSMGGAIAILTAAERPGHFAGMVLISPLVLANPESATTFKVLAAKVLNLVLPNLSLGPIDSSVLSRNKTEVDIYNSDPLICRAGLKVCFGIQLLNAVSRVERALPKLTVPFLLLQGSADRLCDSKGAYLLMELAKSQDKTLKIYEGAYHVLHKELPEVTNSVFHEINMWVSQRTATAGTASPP", "test": "2-Arachidonoylglycerol-based fluorescence assay for DH-463", "assay_type": "biochemical", "protocol": "The natural substrate assays were performed as reported previously[80],[81]. All chemicals and reagents were purchased from Sigma-Aldrich, unless mentioned otherwise. […] 2-Arachidonoylglycerol was from Cayman Chemical. All measurements were performed in n = 4 or n = 8 for controls, with Z’ ≥ 0.6."}, "[8]": {"settings": "log(agonist) vs. response, variable slope"}},
  "note": "Values joined by “and” are separate entries in the source; they are usually repeats but may differ in a detail not shown here. Equal entries are not always repeated. Where two headings read alike, the source gives them in different places.",
  "data": [
    {"smiles": "CCCCCCC(C)(C)c1cc(O)c2c(c1)OC(C)(C)c1ccc(CNCCCCCCNC(=O)CCCCC[N+]3=C(/C=C/C=C/C=C4/N(C)c5ccc(S(=O)(=O)O)cc5C4(C)C)C(C)(C)c4cc(S(=O)(=O)[O-])ccc43)cc1-2", "note": "[fluo-cannabinoid]", "values": [
      {"measurement": "HILLSLOPE (best-fit)", "setting": "[1]", "value": "0,9981"},
      {"measurement": "Span (best-fit), cAMP reduction", "setting": "[1]", "value": "37,53%"},
      {"measurement": "cAMP reduction (%)", "setting": "[1]; 10-6.5 M", "value": "31.4472% and 32.8666% and 33.3129% and 25.9155% and 23.0595%"},
      {"measurement": "cAMP reduction (%)", "setting": "[1]; 10-8.5 M", "value": "-1.6297% and 1.0916% and -1.1492% and -4.3119% and 0.7084%"},
      {"measurement": "cAMP reduction (%)", "setting": "[1]; 10^-6 M", "value": "35.6911% and 25.5164% and 35.8634% and 19.8904% and 28.6228%"},
      {"measurement": "cAMP reduction (%)", "setting": "[1]; 10^-9 M", "value": 0, "unit": "%"},
      {"measurement": "LOGEC50 (best-fit)", "setting": "[1]; concentration in M", "value": "-7,482"},
      {"measurement": "Emax", "setting": "[1]; in vitro cAMP assay on CB1R", "value": 36.1, "unit": "%"},
      {"measurement": "BOTTOM (best-fit), cAMP reduction", "setting": "[1]; [8]", "value": "-1,444%"},
      {"measurement": "TOP (best-fit), cAMP reduction", "setting": "[1]; [8]", "value": "36,09%"},
      {"measurement": "EC50", "setting": "[1]; read-out: EC50 (best-fit)", "value": 33, "unit": "nM"},
      {"measurement": "Ki", "setting": "[2]", "value": 3.5, "unit": "nM"}
    ]},
    {"smiles": "CN(C)C(=O)N[C@H]1CC[C@H](CCN2CCN(c3cccc(Cl)c3Cl)CC2)CC1", "note": "[cariprazine]", "values": [
      {"measurement": "effect on fluo-cariprazine signal in the hilar subregion of the Islands of Calleja", "setting": "[3]", "value": "completely eliminated"},
      {"measurement": "Fluo-CAR STORM density (LPs/μm2)", "setting": "[3]; slices with 30 nM Fluo-CAR, Islands of Calleja, per animal", "value": "0.8583 LPs/μm2 and 0.5531 LPs/μm2 and 1.2207 LPs/μm2 and 0.9766 LPs/μm2"}
    ]},
    {"smiles": "CN(CCCNC(=O)CCCCC[N+]1=C(/C=C/C=C/C=C2/N(C)c3ccc(S(=O)(=O)O)cc3C2(C)C)C(C)(C)c2cc(S(=O)(=O)[O-])ccc21)C(=O)N[C@H]1CC[C@@H](CCN2CCN(c3cccc(Cl)c3Cl)CC2)CC1", "note": "[fluo-cariprazine]", "values": [
      {"measurement": "PharmacoSTORM LPs / ImmunoSTORM LPs (% of D3R), actual mean", "setting": "[4]", "value": "7,203%"},
      {"measurement": "PharmacoSTORM LPs / ImmunoSTORM LPs (% of D3R)", "setting": "[4]; single experiments", "value": "3.466% and 8.432% and 4.243% and 12.6707%"}
    ]},
    {"smiles": "CCCN1CCO[C@@H]2c3cc(O)ccc3OC[C@H]21", "note": "[PD128907]", "values": [
      {"measurement": "Gi1-BRET response (%, norm. to pretreatment)", "setting": "[5]; PD 128907 10-6.5 M, vehicle pretreatment", "value": "106.065% and 96.3019% and 97.7639%"},
      {"measurement": "Gi1-BRET response (%, norm. to pretreatment)", "setting": "[5]; PD 128907 10-7.5 M, vehicle pretreatment", "value": "94.4647% and 90.0327% and 83.0176%"},
      {"measurement": "Gi1-BRET response (%, norm. to pretreatment)", "setting": "[5]; PD 128907 10-8.5 M, vehicle pretreatment", "value": "62.6732% and 52.2099% and 77.0199%"},
      {"measurement": "Gi1-BRET response (%, norm. to pretreatment)", "setting": "[5]; PD 128907 10-9.5 M, vehicle pretreatment", "value": "23.5448% and 22.9857% and 15.0109%"},
      {"measurement": "Gi1-BRET response (%, norm. to pretreatment)", "setting": "[5]; PD 128907 10^-6 M, vehicle pretreatment", "value": 100, "unit": "%"},
      {"measurement": "Gi1-BRET response (%, norm. to pretreatment)", "setting": "[5]; PD 128907 10^-7 M, vehicle pretreatment", "value": "92.6877% and 91.1582% and 95.9579%"},
      {"measurement": "Gi1-BRET response (%, norm. to pretreatment)", "setting": "[5]; PD 128907 10^-8 M, vehicle pretreatment", "value": "89.6043% and 74.7508% and 92.6073%"},
      {"measurement": "Gi1-BRET response (%, norm. to pretreatment)", "setting": "[5]; PD 128907 10^-9 M, vehicle pretreatment", "value": "56.1354% and 47.8674% and 57.7701%"},
      {"measurement": "TOP (best-fit), Gi1-BRET response", "setting": "[5]; PD 128907, vehicle pretreatment", "value": "95,84%"},
      {"measurement": "LOGEC50 (best-fit)", "setting": "[5]; PD 128907, vehicle pretreatment, concentration in M", "value": "-8,980"},
      {"measurement": "EC50", "setting": "[5]; vehicle pretreatment, n = 3, read-out: EC50 of PD128907", "value": 1.05, "unit": "nM"}
    ]},
    {"smiles": "CCN1C[C@]2(COC(=O)c3ccccc3N3C(=O)C[C@H](C)C3=O)CC[C@H](OC)[C@@]34[C@@H]5C[C@H]6[C@H](OC)[C@@H]5[C@](O)(C[C@@H]6OC)[C@@](O)([C@@H](OC)[C@H]23)[C@@H]14", "note": "[methyllycaconitine]", "values": [
      {"measurement": "effect on PharmacoSTORM signal of Alexa647-α-bungarotoxin", "setting": "[6]", "value": "fully prevented"}
    ]},
    {"smiles": "CN1/C(=C/C=C/C=C/C2=[N+](CCCCCC(=O)NCc3cn(CCOc4ccc(C(c5ccc(Cl)cc5)N5CCN(C(=O)OC(C(F)(F)F)C(F)(F)F)CC5)cc4)nn3)c3ccccc3C2(C)C)C(C)(C)c2ccccc21.[Cl-]", "note": "(centres unmarked) [DH-463]", "values": [
      {"measurement": "HILLSLOPE (best-fit)", "setting": "[7]", "value": "-0,7836"},
      {"measurement": "MAGL activity (%), mean", "setting": "[7]; 10^-5 M", "value": 5.023, "unit": "%"},
      {"measurement": "MAGL activity (%), mean", "setting": "[7]; 10^-6 M", "value": 10.8061, "unit": "%"},
      {"measurement": "MAGL activity (%), mean", "setting": "[7]; 10^-7 M", "value": 27.8239, "unit": "%"},
      {"measurement": "MAGL activity (%), mean", "setting": "[7]; 10^-8 M", "value": 51.3279, "unit": "%"},
      {"measurement": "MAGL activity (%), mean", "setting": "[7]; 10^-9 M", "value": 91.5194, "unit": "%"},
      {"measurement": "MAGL activity (%), mean", "setting": "[7]; 10^-10 M", "value": 105.132, "unit": "%"},
      {"measurement": "LOGIC50 (best-fit)", "setting": "[7]; concentration in M", "value": "-7,938"},
      {"measurement": "BOTTOM (best-fit), MAGL activity", "setting": "[7]; log(inhibitor) vs. response, variable slope", "value": "7,823%"},
      {"measurement": "IC50", "setting": "[7]; read-out: IC50 (best-fit)", "value": 11.5, "unit": "nM"}
    ]}
  ]
}
